Results: US20100249082A1, “MODULATORS OF HYPOXIA INDUCIBLE FACTOR-1 AND RELATED USES” (Bionaut Pharmaceuticals INC., priority 2007, published 2010)

Experiments:
[1] = target: Na^+, K^+-ATPase (Cricetulus griseus, UniProt A0A8C2N4Z0); experiment: cell-based; conditions: for inhibition at 0.5 µM / inhibition at 1 µM / inhibition at 5 µM / inhibition at 10 µM / inhibition at 50 µM / inhibition at 100 µM / inhibition at 200 µM / inhibition at 500 µM: CHO-K1; for remaining activity at 0.5 µM / remaining activity at 1 µM / remaining activity at 5 µM / remaining activity at 10 µM / remaining activity at 50 µM / remaining activity at 100 µM / remaining activity at 200 µM / remaining activity at 500 µM: CHO-K1, 0.5 h, read-out: Normalized Uptake (%)
Procedure: (§1) Compounds were screened using Ion Channel Research (ICR) technology and a non-radioactive Rubidium Uptake Assay
(§2) For all the test compounds and standard blockers, 100× solutions were used to prepare 1× test doses for Na^+, K^+-ATPase screen in CHO cell line. The final DMSO concentration in each well was 1%.
(§3) • 1. […] Rb^+ Uptake: Cells were washed with 200 μl of Rb^+ Uptake Buffer once and R^+ loaded by application of 198 μl R^+ Uptake Buffer. Compounds were added at 2 μl/well of a 100× stock solution in 100% DMSO in the uptake buffer followed by incubation for 30 minutes at room temperature (c. 22° C.). The total volume in each well was 200 μl (198 μl of R^+ Uptake Buffer and 2 μl of the 100× compound). The 100× compound solution gets diluted in R^+ Uptake Buffer to 1× and the DMSO to 1%. • 3. Wash: Residual R^+ and compound were removed by four successive washes with 200 μl of SPA-Wash Buffer. • 4. Cell Lysis: Intracellular samples were obtained by whole cell lysis with the application of 200 μl Lysis Solution. • 5. Analysis: The level of R^+ in the intracellular samples was measured by ICR8000 (Aurora Biomed Inc., Vancouver, Canada). using flame atomic absorption spectroscopy.

[2] = tested on: Na^+, K^+-ATPase; experiment: cell-based; conditions: for Inhibition (%) / Normalized Uptake (%): CHO-K1; for Sample Solubility: CHO-K1 screen test wells, 1% DMSO
Procedure: as §1, §2, §3

[3] = target: T1, Na^+, K^+-ATPase (Homo sapiens, UniProt P05023); experiment: cell-based; conditions: for inhibition at 0.01 µM / inhibition at 0.1 µM / inhibition at 1 µM / inhibition at 5 µM / inhibition at 10 µM / inhibition at 50 µM: HEK293, HEK-293; for inhibition at 0.01 µM: Log[drug](M) −8.0; for inhibition at 5 µM: Log[drug](M) −5.3; for inhibition at 10 µM: Log[drug](M) −5.0; for inhibition at 50 µM: Log[drug](M) −4.3; for Rank order: HEK-293, ranked on potency (IC50 value); for Sample Solubility: HEK-293 screen test wells, 1% DMSO
T1 construct: The HEK-293 cell line endogenously expressing Na^+, K^+-ATPase; endogenous in cells; host or cells: HEK-293
Procedure: Cells were plated at a density of 50,000 cells/well in 96-well microplates and incubated at 37° C., 5% CO2 until 80-90% confluency was attained

[4] = Sample solubility noted in the rubidium uptake assay; assay type: physicochemical; conditions: DMSO 1.0%
[5] = tested on: HIF-1α expression; experiment: Immunoblotting for hypoxia-mediated HIF-1α induction in human tumor cells (Caki-1, Panc-1); assay type: cell-based; conditions: Caki-1 or Panc-1 cells under hypoxia
[6] = tested on: HIF-1α accumulation; experiment: Western blot of HIF-1α induced by PHD inhibitor L-mimosone under normoxia in Hep3B cells; assay type: cell-based; conditions: 200 μM L-mimosone for 18 hours, Western blotting
Procedure: Abundance of HIF1α and β-actin was determined by Western blotting.

[7] = cited from earlier work

Row | Compound | IC50 [1] [µM] | Inhibition (%) ([2]; dose 0.50 uM) | Normalized Uptake (%) ([2]; dose 0.50 uM) | Inhibition (%) ([2]; dose 1.0 uM) | Normalized Uptake (%) ([2]; dose 1.0 uM) | Inhibition (%) ([2]; dose 5.0 uM) | Normalized Uptake (%) ([2]; dose 5.0 uM) | Inhibition (%) ([2]; dose 10 uM) | Sample Solubility [2] | IC50 [3] [µM] | inhibition at 0.01 µM [3] [%] | inhibition at 0.1 µM ([3]; Log[drug](M) −7.0) [%] | inhibition at 0.1 µM ([3]; Log[drug](M) −7.3) [%] | inhibition at 1 µM ([3]; Log[drug](M) −6.0) [%] | inhibition at 1 µM ([3]; Log[drug](M) −6.3) [%] | inhibition at 5 µM [3] [%] | inhibition at 10 µM [3] [%] | inhibition at 50 µM [3] [%] | Rank order [3] | Sample Solubility [3] | also measured
1 | C[C@]12CCC(=NOCCCCCN3CCCCC3)C=C1CCC1C2CC[C@]2(C)[C@@H](c3ccc(=O)oc3)CC[C@]12O (stereo partly shown) [BP248, 3-[5-(Piperidinopentoxy)imino]-scillarinone] | 27.9 | 1.3 | 104.5 | 0.0 | 105.6 | 9.1 | 96.6 | 27.0 | Good | 5.55 | 0 | 1.7 | 0.8 | 10.1 | 4.5 | 44.7 | 74 | 100 | 4 | Good | Normalized Uptake (%) ([2]; dose 10 uM): 81.1%; Inhibition (%) ([2]; dose 50 uM): 61.2%; Normalized Uptake (%) ([2]; dose 50 uM): 51.5%; Inhibition (%) ([2]; dose 100 uM): 84.1%; Normalized Uptake (%) ([2]; dose 100 uM): 31.6%; Inhibition (%) ([2]; dose 200 uM): 94.0%; Normalized Uptake (%) ([2]; dose 200 uM): 23.1%; Inhibition (%) ([2]; dose 500 uM): 100.0%; Normalized Uptake (%) ([2]; dose 500 uM): 17.9%
2 | C[C@]12CCC(=NOCCCN3CCCCC3)C=C1CCC1C2CC[C@]2(C)[C@@H](c3ccc(=O)oc3)CC[C@]12O (stereo partly shown) [BP246, 3-[3-(Piperidinopropoxy)imino]-scillarinone] | 57.8 |  |  |  |  |  |  |  | Good | 0.335 | 0 | 28.5 | 13.9 | 79.1 | 48.5 | 96.3 | 96.1 | 100 | 1 | Good | inhibition at 0.5 µM [1]: 0%; inhibition at 1 µM [1]: 2.2%; inhibition at 5 µM [1]: 12%; inhibition at 10 µM [1]: 21.5%; inhibition at 50 µM [1]: 42%; inhibition at 100 µM [1]: 64.7%; inhibition at 200 µM [1]: 89.3%; inhibition at 500 µM [1]: 100%; remaining activity at 0.5 µM [1]: 95.3%; remaining activity at 1 µM [1]: 93.4%; remaining activity at 5 µM [1]: 84.8%; remaining activity at 10 µM [1]: 76.6%; remaining activity at 50 µM [1]: 58.7%; remaining activity at 100 µM [1]: 39%; remaining activity at 200 µM [1]: 17.5%; remaining activity at 500 µM [1]: 8.2%
3 | C[C@]12CCC(=NOCCN3CCOCC3)C=C1CCC1C2CC[C@]2(C)[C@@H](c3ccc(=O)oc3)CC[C@]12O (stereo partly shown) [BP245, 3-[2-(Morpholinoethoxy)imino]-scillarinone] | 93.2 |  |  |  |  |  |  |  | Good | 0.732 | 0 | 22.1 | 8.3 | 56 | 36 | 92.3 | 94.1 | 100 | 2 | Good | inhibition at 0.5 µM [1]: 0%; inhibition at 1 µM [1]: 2.9%; inhibition at 5 µM [1]: 4.2%; inhibition at 10 µM [1]: 6.6%; inhibition at 50 µM [1]: 23.7%; inhibition at 100 µM [1]: 44.9%; inhibition at 200 µM [1]: 86.5%; inhibition at 500 µM [1]: 100%; remaining activity at 0.5 µM [1]: 98.9%; remaining activity at 1 µM [1]: 96.9%; remaining activity at 5 µM [1]: 96%; remaining activity at 10 µM [1]: 94.3%; remaining activity at 50 µM [1]: 82.4%; remaining activity at 100 µM [1]: 67.6%; remaining activity at 200 µM [1]: 38.7%; remaining activity at 500 µM [1]: 29.3%
4 | C[C@@H]1O[C@@H](O[C@@H]2C=C3CC[C@@H]4[C@H](CC[C@]5(C)[C@@H](c6ccc(=O)oc6)CC[C@]45O)[C@@]3(C)CC2)[C@H](O)[C@H](O)[C@H]1O [BNC4, proscillaridin, reference compound] | 46.4 | 1.3 | 99.4 | 0.0 | 100.3 | 9.0 | 93.8 | 20.6 | Good | 0.24 |  |  |  |  |  |  |  |  | 1 |  | Sample Solubility [4]: Good; Normalized Uptake (%) ([2]; dose 10 uM): 80.5%; Inhibition (%) ([2]; dose 50 uM): 51.8%; Normalized Uptake (%) ([2]; dose 50 uM): 54.6%; Inhibition (%) ([2]; dose 100 uM): 69.8%; Normalized Uptake (%) ([2]; dose 100 uM): 44.0%; Inhibition (%) ([2]; dose 200 uM): 86.7%; Normalized Uptake (%) ([2]; dose 200 uM): 38.2%; Inhibition (%) ([2]; dose 500 uM): 100.0%; Normalized Uptake (%) ([2]; dose 500 uM): 28.7%; Potency in inhibiting HIF-1α expression relative to BNC1 [5]: about 10 times; Effect on HIF-1α accumulation induced by L-mimosone [6]: eliminated HIF-1α accumulation; plasma half-life in human ([7]; human, according to the literature): about 40 hours; max. plasma concentration ([7]; in vivo): about 0.1 μg/mL
